{
  "source": "patent US20260345791A1",
  "about": "“EIF4A INHIBITORS AND USES THEREOF” (The Regents of the University of California, priority 2022, published 2026)",
  "key": {"[1]": {"details": "in vivo; cited from earlier work"}, "[2]": {"test_system": "interferon-induced transmembrane (IFITM) proteins", "test": "Genome-scale chemical-genetic identification of uptake pathway", "format": "cell-based", "details": "genome-scale chemical-genetic approaches", "description": "We devised additional linked inhibitors targeting EIF4A1 (BisRoc-1, molecular weight: 1466 g/mol) whose uptake we predicted would be assisted by IFITM proteins. This uptake pathway should provide a general mechanism by which large, flexibly linked chimeric molecules can gain assisted access to the cytosol, including compounds with mechanisms of action not easily accessible to traditional drug-like molecules."}, "MTOR": {"test_system": "MTOR", "details": "cited from earlier work"}, "[3]": {"test_system": "K562 CRISPRi or CRISPRa cells; IFITM1, IFITM2, IFITM3", "test": "Viability of K562 CRISPRi/CRISPRa cells with modulated IFITM expression (chemical-genetic interaction, IC50 shift)", "format": "cell-based", "details": "for IFITM assistance versus linker length: linker series: BisRoc-1 (PEG11), BisRoc-2 (PEG4), BisRoc-3 (PEG2), rocaglamide (no linker), FIG. 2B", "description": "FIGS. 1A-1E. Longer linker length correlates with greater IFITM assistance in a series of linked rocaglamide analogs. FIG. 1A: Crystal structure of rocaglamide bound to eIF4A1 and polypurine RNA showing adjacent symmetry mates (PDB, 5ZC9). The distance between RocA molecules bound to adjacent eIF4A1 proteins is approximately 14 Å and the solvent exposed amide on RocA offers a handle for chemical modification. FIG. 1B: Chemical structures of select eIF4A1 inhibitors. FIGS. 1C-1D: Viability of K562 CRISPRi (FIG. 1C) or CRISPRa (FIG. 1D) cells expressing sgRNAs treated with BisRoc-1 or rocaglamide. Data represent means of three biological replicates; error bars denote SD. FIG. 1E: Chemical structures of a BisRoc linker length series (see also FIG. 2B).\nFIGS. 2A-2C. IFITM proteins assist the cellular activity of diverse linked chemotypes. FIG. 2A: Heavy atom skeletons of compounds assessed for IFITM assistance (see also FIG. 3 for chemical structures). Compounds were categorized as non-linked chemotypes (compounds 3, 6, and 8; black), linked chemotypes with short linkers (compounds 10 and 13; light gray), or linked chemotypes with long linkers (compounds 15 and 17; medium gray). FIG. 2B: Chemical-genetic interaction map of inhibitors in FIG. 2A with IFITM1, IFTM2, and IFITM3. Potency, as measured by dose-response IC50 in a cell viability assay (see also FIG. 1D for example source data), was normalized to that of non-sgRNA-expressing K562 CRISPRi or CRISPRa cells. Physicochemical properties, including molecular weight (MW) and number of rotatable bonds, with their respective traditional thresholds for drug-likeness are indicated (right). Data represent means of three biological replicates. FIG. 2C: Map of chemical space populated by 301 kinase inhibitors in clinical development (black), 2258 PROTACs reported in the literature (light gray), and 2 linked chemotypes described herein (medium gray). Boundaries represent traditional guidelines for drug-likeness.\nGiven the ubiquitous presence of IFITM proteins in cells, we hypothesized that the cellular uptake of other linked inhibitors in the literature could also be assisted by IFITM proteins. While not generally as large as the linked chemotypes described above, PROTACs are likewise composed of two chemical entities covalently attached by a flexible tether (15). […] Thus, we included several PROTACs and their non-linked parent inhibitors in an expanded survey of chemical-genetic interactions with IFITM proteins (FIG. 2A, FIGS. 3A-3B, and FIG. 4). We treated our K562 CRISPRi and CRISPRa cells with these inhibitors and evaluated differences in potency resulting from IFITM protein expression modulation, as measured by half-maximal inhibitory concentration (IC50) shift in a cell viability assay. […] The inverse finding, resistance to linked chemotypes, resulted from gene knockdown (FIG. 2B). Included among these compounds were a systematic linker series of BisRoc-1 analogs (FIG. 1E). […] The same trend was corroborated by the diverse ensemble of all molecules tested (FIG. 2B): the magnitudes of chemical-genetic interactions correlated with inhibitor size (molecular weight) and flexibility (number of rotatable bonds). […] Despite their cellular activities, the physicochemical properties of these linked chemotypes largely violate Lipinski's (1) and Veber's (2) classic guidelines (FIG. 2B and FIG. 4), raising the need for a revised drug design framework that considers IFITM-assisted uptake and other cellular import processes. […]"}, "KBM7 cells; IFITM2": {"test_system": "KBM7 cells; IFITM2", "details": "IFITM2 knockout, not validated; cited from earlier work"}},
  "data": [
    {"smiles": "CO[C@H]1C[C@@H]2CC[C@@H](C)[C@@](O)(O2)C(=O)C(=O)N2CCCC[C@H]2C(=O)O[C@H]([C@H](C)C[C@@H]2CC[C@@H](OCCOCc3cn(CCOCCOCCOCCOCCOCCOCCOCCOCCC(=O)NCCCCn4nc(-c5ccc6oc(N)nc6c5)c5c(N)ncnc54)nn3)[C@H](OC)C2)CC(=O)[C@H](C)/C=C(\\C)[C@@H](O)[C@@H](OC)C(=O)[C@H](C)C[C@H](C)C=CC=CC=C1C", "note": "[RapaLink-1]", "values": [
      {"measurement": "blood-brain barrier penetration", "setting": "[1]", "result": "penetrates the blood-brain barrier"},
      {"measurement": "modulation of cell permeability by IFITM pathway", "setting": "[2]", "result": "modulates the cell permeability"},
      {"measurement": "activity in vivo", "setting": "MTOR", "result": "highly active in vivo"}
    ]},
    {"smiles": "COc1ccc([C@@]23Oc4cc(OC)cc(OC)c4[C@]2(O)[C@H](O)[C@H](C(=O)NCCOCCOCCOCCOCCOCCOCCOCCOCCOCCOCCOCCNC(=O)[C@H]2[C@@H](O)[C@@]4(O)c5c(OC)cc(OC)cc5O[C@@]4(c4ccc(OC)cc4)[C@@H]2c2ccccc2)[C@H]3c2ccccc2)cc1", "note": "[BisRoc-1]", "values": [
      {"measurement": "overall modulation in the cellular activity accounted for by IFITM proteins", "setting": "[3]; K562 CRISPRi/a cells, FIG. 1C-1D", "result": 6.2, "unit": "fold"},
      {"measurement": "IFITM assistance versus linker length", "setting": "[3]", "result": "longer linker lengths correlated with greater IFITM assistance"}
    ]},
    {"smiles": "COc1ccc([C@@]23Oc4cc(OC)cc(OC)c4[C@]2(O)[C@H](O)[C@H](C(=O)NCCOCCOCCNC(=O)[C@H]2[C@@H](O)[C@@]4(O)c5c(OC)cc(OC)cc5O[C@@]4(c4ccc(OC)cc4)[C@@H]2c2ccccc2)[C@H]3c2ccccc2)cc1", "note": "[BisRoc-3]", "values": [
      {"measurement": "IFITM assistance versus linker length", "setting": "[3]", "result": "longer linker lengths correlated with greater IFITM assistance"}
    ]},
    {"smiles": "COc1ccc([C@@]23Oc4cc(OC)cc(OC)c4[C@]2(O)[C@H](O)[C@H](C(=O)N(C)C)[C@H]3c2ccccc2)cc1", "note": "[rocaglamide]", "values": [
      {"measurement": "IFITM assistance versus linker length", "setting": "[3]", "result": "longer linker lengths correlated with greater IFITM assistance"}
    ]},
    {"smiles": "Cc1sc2c(c1C)C(c1ccc(Cl)cc1)=N[C@@H](CC(=O)NCCCCCCCCNC(=O)COc1cccc3c1C(=O)N(C1CCC(=O)NC1=O)C3=O)c1nnc(C)n1-2", "note": "(stereo partly drawn) [dBET6]", "values": [
      {"measurement": "IFITM2 chemical-genetic interaction", "setting": "KBM7 cells; IFITM2", "result": "statistically significant resistance chemical-genetic interaction"}
    ]},
    {"smiles": "COc1ccc([C@@]23Oc4cc(OC)cc(OC)c4[C@]2(O)[C@H](O)[C@H](C(=O)NCCOCCOCCOCCOCCNC(=O)[C@H]2[C@@H](O)[C@@]4(O)c5c(OC)cc(OC)cc5O[C@@]4(c4ccc(OC)cc4)[C@@H]2c2ccccc2)[C@H]3c2ccccc2)cc1", "note": "[BisRoc-2]", "values": [
      {"measurement": "IFITM assistance versus linker length", "setting": "[3]", "result": "longer linker lengths correlated with greater IFITM assistance"}
    ]}
  ]
}
